Earlier results as cited in US8383585B2, “Biomarkers for cardiodiabetes” (IKFE Institut fur Klinische Forschung und Entwicklung GmbH, priority 2008, dated 2013).

What was measured:
Set-up in all cases: key: ↑: An up arrow indicates an increase in biomarker levels; ↓: a down arrow indicates a decrease; ◯: “O” indicates substantially no change
Conditions in all cases: effect on biomarker level in a subject
[1] = tested on: adiponectin
[2] = tested on: intact proinsulin
[3] = tested on: hsCRP

Row | Molecule | adiponectin [1] | intact proinsulin [2] | hsCRP [3]
1 | CN(C)C(=N)N=C(N)N [metformin] | ↑ | ↓ | ◯
2 | insulin | ◯ | ↓ | ◯
